Source: US8124627B2, “Biphenyl compounds useful as muscarinic receptor antagonists” (Theravance, Inc., priority 2005, dated 2012)
pKi: −log10 of the molar value. Counter-ions that a name gives are not always drawn.

Assays:
[1] = Differential scanning calorimetry (DSC), thermal decomposition; format: physicochemical; conditions: heating ramp 10° C./min
Experimental: DSC was performed using a TA Instruments Model Q-10 module with a Thermal Analyst controller, and data were collected and analyzed using TA Instruments Thermal Solutions software. A sample of about 1 mg of the crystalline diacetate salt was accurately weighed into an aluminum pan with lid, and evaluated using a linear heating ramp of 10° C./min from ambient temperature to approximately 300° C. The DSC cell was purged with dry nitrogen during use. A representative DSC trace for this salt is shown in FIG. 2 and depicts one transition at about 114° C., no thermal decomposition below about 160° C., and maximum endothermic heat flow at about 112° C.

[2] = Dynamic moisture sorption (DMS) assessment; format: physicochemical; conditions: exposed to up to 90% RH
Experimental: A dynamic moisture sorption (DMS) assessment (also known as a moisture sorption-desorption profile) was performed for samples of the crystalline diacetate salt using a VTI atmospheric microbalance, SGA-100 system (VTI Corp., Hialeah, Fla. 33016). A sample size of approximately 10 mg was used and the humidity was set at the ambient value at the start of the analysis. A typical DMS analysis consisted of three scans: ambient to 2% relative humidity (RH), 2% RH to 90% RH, 90% RH to 5% RH at a scan rate of 5% RH/step. The mass was measured every two minutes and the RH was changed to the next value (+/−5% RH) when the mass of the sample was stable to within 0.01% for 5 consecutive points.

[3] = target: T1, M3 muscarinic receptor subtype (Homo sapiens, UniProt P20309); assay: Radioligand binding assay ([3H]-NMS displacement, CHO cell membranes); conditions: tested in this or a similar assay
T1 construct: expressed in transfected cells; crude membranes prepared in house
Experimental: CHO cell lines stably expressing cloned human hM1, hM2, hM3 and hM4 muscarinic receptor subtypes, respectively, were grown to near confluency in medium consisting of HAM's F-12 supplemented with 10% FBS and […]. The cells were grown in a 5% CO2, 37° C. incubator and lifted with 2 mM EDTA in dPBS. Cells were collected by 5 minute centrifugation at 650×g, and cell pellets were either stored frozen at −80° C. or membranes were prepared immediately. For membrane preparation, cell pellets were resuspended in lysis buffer and homogenized with a Polytron PT-2100 tissue disrupter (Kinematica AG; 20 seconds×2 bursts). Crude membranes were centrifuged at 40,000×g for 15 minutes at 4° C. […] The protein concentration of the membrane suspension was determined by the method described in Lowry, O. et al., […] 193:265 (1951). […]
Radioligand binding assays were performed in 96-well microtiter plates in a total assay volume of 100 μL. […] Filter plates were rinsed three times with wash buffer (10 mM HEPES) to remove unbound radioactivity. […] The plates were then counted in a PerkinElmer Topcount liquid scintillation counter (PerkinElmer Inc., Wellesley, Mass.). Binding data were analyzed by nonlinear regression analysis with the GraphPad Prism Software package (GraphPad Software, Inc., San Diego, Calif.) using the one-site competition model. […]

T1 sequence (P20309 whole entry): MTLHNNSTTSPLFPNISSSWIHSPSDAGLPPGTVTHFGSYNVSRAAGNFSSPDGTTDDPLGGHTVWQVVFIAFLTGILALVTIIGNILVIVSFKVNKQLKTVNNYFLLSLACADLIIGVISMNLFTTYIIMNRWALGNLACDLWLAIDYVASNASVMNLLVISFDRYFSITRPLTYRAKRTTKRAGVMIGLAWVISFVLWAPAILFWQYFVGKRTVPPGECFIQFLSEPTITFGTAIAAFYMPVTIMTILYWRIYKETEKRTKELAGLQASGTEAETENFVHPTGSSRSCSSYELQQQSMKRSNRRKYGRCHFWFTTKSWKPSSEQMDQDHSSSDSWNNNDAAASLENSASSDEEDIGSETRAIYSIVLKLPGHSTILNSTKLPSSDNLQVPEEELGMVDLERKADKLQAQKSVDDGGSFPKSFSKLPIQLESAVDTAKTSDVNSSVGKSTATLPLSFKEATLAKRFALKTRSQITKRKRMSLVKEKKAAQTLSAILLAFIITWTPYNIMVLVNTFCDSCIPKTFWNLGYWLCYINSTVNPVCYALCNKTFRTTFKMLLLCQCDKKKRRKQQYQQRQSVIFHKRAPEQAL

no thermal decomposition below (DSC trace) [1] [°C]	weight gain in DMS (reversible sorption/desorption profile) [2]	pKi [3]	SMILES
≥ 160	less than 18%		CN(CCN1CCC(OC(=O)Nc2ccccc2-c2ccccc2)CC1)C(=O)c1cccc(C(=O)NCCNCc2ccc(O)cc2)c1 [crystalline diacetate salt, biphenyl-2-ylcarbamic acid 1-[2-({3-[2-(4-hydroxybenzylamino)ethylcarbamoyl]benzoyl}methylamino)ethyl]piperidin-4-yl ester]
≥ 150	less than 14%		CN(CCN1CCC(OC(=O)Nc2ccccc2-c2ccccc2)CC1)C(=O)c1cccc(C(=O)NCCNCc2ccc(O)cc2)c1 [crystalline monooxalate salt, Biphenyl-2-ylcarbamic Acid 1-[2-({3-[2-(4-Hydroxybenzylamino)ethylcarbamoyl]benzoyl}methylamino)ethyl]piperidin-4-yl Ester]
		> 8.30	CN(CCN1CCC(OC(=O)Nc2ccccc2-c2ccccc2)CC1)C(=O)c1cccc(C(=O)NCCNCc2ccc(O)cc2)c1 [Example 1, Biphenyl-2-ylcarbamic Acid 1-[2-({3-[2-(4-Hydroxybenzylamino)ethylcarbamoyl]benzoyl}methylamino)ethyl]piperidin-4-yl Ester]
≥ 150	less than 11%		CN(CCN1CCC(OC(=O)Nc2ccccc2-c2ccccc2)CC1)C(=O)c1cccc(C(=O)NCCNCc2ccc(O)cc2)c1 [crystalline dipropionate salt, Biphenyl-2-ylcarbamic Acid 1-[2-({3-[2-(4-Hydroxybenzylamino)ethylcarbamoyl]benzoyl}methylamino)ethyl]piperidin-4-yl Ester]
